Where two headings read alike, the source gives them in different places.
How the values were obtained:
[1] = test system: HIV-1 laboratory strain, NL4-3; assay: MT-4 cytoprotection assay; assay type: cell-based
Experimental: The HTLV-1 transformed T cell line, MT-4, is highly susceptible to HIV-1 infection. Anti-HIV-1 agents were evaluated in this target cell line by protection from the HIV-induced cytopathic effect. In this assay, viability of both HIV-1 and mock-infected cells was assessed in a […] assay that monitors the ability of metabolically-active cells to reduce the tetrazolium salt WST-1. Cytoprotection by antiviral compounds is indicated by the positive readout of increased WST-1 cleavage.
Briefly, exponentially growing MT-4 cells were mock-infected or batch-infected with the HIV-1 laboratory strain, NL4-3, at a multiplicity of infection of 0.0005. Following a two hour infection, the cells were washed to remove unbound virus and plated in the presence of increasing concentrations of compound. After four days incubation, cytoprotection in the infected cells and compound toxicity in mock-infected cells were analyzed using the WST-1 assay.

HIV-1NL4-3 = assay: P4-MAGI assay; assay type: cell-based
In short: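 Cytotoxicity (TC50, 50% growth inhibition) came from WST-1 in uninfected cells. For antiviral activity, compound at rising concentrations was added immediately after HIV-1NL4-3 inoculation (MOI 1, DEAE-Dextran) of P4 cells, CD4+ HeLa cells expressing β-galactosidase from a minimal HIV-1 LTR upon infection.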

[2] = Human immunodeficiency virus 1, NL43, MT4, 96 h, MT-4 cells, four days incubation, WST-1 readout, read-out: MT4 EC50
[3] = Human immunodeficiency virus 1, 24 h, P4 cells, 24 hour incubation, β-galactosidase expression, read-out: P4-MAGI IC50
[4] = Human immunodeficiency virus 1, text statement, less than about 100 nm, read-out: P4-MAGI assay IC50
[5] = Human immunodeficiency virus 1, NL43, less than about 100 nm, read-out: MT-4 assay EC50 (concentration of compound that reduces the virus induced cytopathic effect by 50%)

SMILES | EC50 [1, 2] [nM] | IC50 (HIV-1NL4-3; [3]) [nM] | IC50 (HIV-1NL4-3; [4]) [nM] | EC50 [1, 5] [nM]
C=C(C)[C@@H]1CC[C@]2(C(=O)NCCc3cccc(C(=O)Nc4cccc(C(=O)O)c4)c3)CC[C@]3(C)C(CCC4[C@@]5(C)CC[C@H](O)C(C)(C)C5CC[C@]43C)C12 (some centres unmarked) [Example 60] | 248 | 31 | < 100 | –
C=C(C)[C@@H]1CC[C@]2(C(=O)NCCc3cccc(C(=O)NCc4ccc(OCCCN5CCN(S(=O)(=O)CC)CC5)c(C(=O)O)c4)c3)CC[C@]3(C)C(CCC4[C@@]5(C)CC[C@H](O)C(C)(C)C5CC[C@]43C)C12 (some centres unmarked) [Example 243] | 26 | 17.5 | – | –
C=C(C)[C@@H]1CC[C@]2(C(=O)NCCc3cccc(C(=O)NCCc4ccc(O)cc4)c3)CC[C@]3(C)C(CCC4[C@@]5(C)CC[C@H](O)C(C)(C)C5CC[C@]43C)C12 (some centres unmarked) [Example 147] | 30 | 26.6 | – | –
C=C(C)[C@@H]1CC[C@]2(C(=O)NCCc3cccc(S(=O)(=O)NCc4ccc(C(=O)OC)cc4)c3)CC[C@]3(C)C(CCC4[C@@]5(C)CC[C@H](O)C(C)(C)C5CC[C@]43C)C12 (some centres unmarked) [Example 250] | 594 | 106 | – | –
C=C(C)[C@@H]1CC[C@]2(C(=O)NCc3cccc(C(=O)NCCc4ccc(C(=O)O)cc4)c3)CC[C@]3(C)C(CCC4[C@@]5(C)CC[C@H](O)C(C)(C)C5CC[C@]43C)C12 (some centres unmarked) [Example 9] | 5.5 | 22.3 | < 100 | < 100
C=C(C)[C@@H]1CC[C@]2(C(=O)NCc3cccc(C(=O)NCCc4ccc(S(N)(=O)=O)cc4)c3)CC[C@]3(C)C(CCC4[C@@]5(C)CC[C@H](O)C(C)(C)C5CC[C@]43C)C12 (some centres unmarked) [Example 45] | 94 | 15.9 | < 100 | < 100
C=C(C)[C@@H]1CC[C@]2(C(=O)NCCc3cccc(C(=O)NCc4ccc(C(=O)NCCN5CCOCC5)cn4)c3)CC[C@]3(C)C(CCC4[C@@]5(C)CC[C@H](O)C(C)(C)C5CC[C@]43C)C12 (some centres unmarked) [Example 174] | 7 | 6 | – | –
C=C(C)[C@@H]1CC[C@]2(C(=O)NCCc3cccc(C(=O)NCc4ccc(OCCCN5CCN(S(=O)(=O)CC)CC5)cc4)c3)CC[C@]3(C)C(CCC4[C@@]5(C)CC[C@H](O)C(C)(C)C5CC[C@]43C)C12 (some centres unmarked) [Example 236] | 30 | 19.8 | – | –
C=C(C)[C@@H]1CC[C@]2(C(=O)NCCc3cccc(C(=O)NCc4ccc(C(=O)NCCN5CCOCC5)cc4)c3)CC[C@]3(C)C(CCC4[C@@]5(C)CC[C@H](O)C(C)(C)C5CC[C@]43C)C12 (some centres unmarked) [Example 136] | 14.1 | 11.6 | < 100 | < 100
C=C(C)[C@@H]1CC[C@]2(C(=O)NCc3cccc(C(=O)NCc4ccc(OCCCC(=O)O)c(C(=O)O)c4)c3)CC[C@]3(C)C(CCC4[C@@]5(C)CC[C@H](O)C(C)(C)C5CC[C@]43C)C12 (some centres unmarked) [Example 117] | 384 | 76 | < 100 | –
C=C(C)[C@@H]1CC[C@]2(C(=O)NCc3cc(C(=O)NCc4cccc(C(=O)O)c4)ccc3F)CC[C@]3(C)C(CCC4[C@@]5(C)CC[C@H](O)C(C)(C)C5CC[C@]43C)C12 (some centres unmarked) [Example 101] | 3.2 | 28.3 | < 100 | < 100
C=C(C)[C@@H]1CC[C@]2(C(=O)NCc3cccc(C(=O)NCCNC(C)=O)c3)CC[C@]3(C)C(CCC4[C@@]5(C)CC[C@H](O)C(C)(C)C5CC[C@]43C)C12 (some centres unmarked) [Example 4] | 2300 | 155 | – | –
C=C(C)[C@@H]1CC[C@]2(C(=O)NCCc3cccc(C(=O)NCc4ccc(S(=O)(=O)NCCN5CCOCC5)cc4)c3)CC[C@]3(C)C(CCC4[C@@]5(C)CC[C@H](O)C(C)(C)C5CC[C@]43C)[C@@H]12 (some centres unmarked) [Example 148] | 53 | 6 | – | –
C=C(C)[C@@H]1CC[C@]2(C(=O)NCCc3cccc(C(=O)NCC4COC(C(=O)O)CO4)c3)CC[C@]3(C)C(CCC4[C@@]5(C)CC[C@H](O)C(C)(C)C5CC[C@]43C)C12 (some centres unmarked) [Example 257] | 328 | 54 | – | –
C=C(C)[C@@H]1CC[C@]2(C(=O)NCc3ccnc(C(=O)NCCc4ccc(C(=O)O)cc4)c3)CC[C@]3(C)C(CCC4[C@@]5(C)CC[C@H](O)C(C)(C)C5CC[C@]43C)C12 (some centres unmarked) [Example 92] | 4870 | 121 | – | –
C=C(C)[C@@H]1CC[C@]2(C(=O)NCCc3cccc(C(=O)NCC4CCC(C(=O)OC)CC4)c3)CC[C@]3(C)C(CCC4[C@@]5(C)CC[C@H](O)C(C)(C)C5CC[C@]43C)C12 (some centres unmarked) [Example 210] | 33 | 30.8 | – | –

SMILES | EC50 [1, 2] [nM] | IC50 (HIV-1NL4-3; [3]) [nM] | IC50 (HIV-1NL4-3; [4]) [nM] | EC50 [1, 5] [nM]
C=C(C)[C@@H]1CC[C@]2(C(=O)NCCc3cccc(C(=O)NCc4ccc(C(=O)NC(C(=O)O)C(N)C(=O)O)cn4)c3)CC[C@]3(C)C(CCC4[C@@]5(C)CC[C@H](O)C(C)(C)C5CC[C@]43C)C12 (some centres unmarked) [Example 225] | 53 | 38.5 | – | –
C=C(C)[C@@H]1CC[C@]2(C(=O)NCCc3cccc(C(=O)NCc4ccc(O)cc4)c3)CC[C@]3(C)C(CCC4[C@@]5(C)CC[C@H](O)C(C)(C)C5CC[C@]43C)C12 (some centres unmarked) [Example 188] | 37 | 12 | – | –
C=C(C)[C@@H]1CC[C@]2(C(=O)NCCc3cccc(C(=O)NCc4ccc(OCCCn5cncc5C(=O)O)c(C(=O)O)c4)c3)CC[C@]3(C)C(CCC4[C@@]5(C)CC[C@H](O)C(C)(C)C5CC[C@]43C)C12 (some centres unmarked) [Example 246] | 233 | 57.3 | – | –
C=C(C)[C@@H]1CC[C@]2(C(=O)NCc3cccc(C(=O)NCc4ccc(OCCCN5CCOCC5)c(C(=O)OC)c4)c3)CC[C@]3(C)C(CCC4[C@@]5(C)CC[C@H](O)C(C)(C)C5CC[C@]43C)C12 (some centres unmarked) [Example 123] | 13 | 18.9 | < 100 | < 100
C=C(C)[C@@H]1CC[C@]2(C(=O)NCc3cccc(C(=O)NCCc4ccc(C(=O)O)c(F)c4)c3)CC[C@]3(C)C(CCC4[C@@]5(C)CC[C@H](O)C(C)(C)C5CC[C@]43C)C12 (some centres unmarked) [Example 40] | 6.3 | 19.9 | < 100 | < 100
C=C(C)[C@@H]1CC[C@]2(C(=O)NCCc3cccc(C(=O)NCc4ccc(C(=O)OC)o4)c3)CC[C@]3(C)C(CCC4[C@@]5(C)CC[C@H](O)C(C)(C)C5CC[C@]43C)C12 (some centres unmarked) [Example 155] | 17 | 25.6 | – | –
C=C(C)[C@@H]1CC[C@]2(C(=O)NCc3cc(C(=O)NCc4cccc(C(=O)OC)c4)ccc3F)CC[C@]3(C)C(CCC4[C@@]5(C)CC[C@H](O)C(C)(C)C5CC[C@]43C)C12 (some centres unmarked) [Example 102] | 0.6 | 22 | < 100 | < 100
C=C(C)[C@@H]1CC[C@]2(C(=O)NCCc3cccc(C(=O)NCc4ccc(C(=O)N[C@@H](C(=O)O)[C@H](C)O)cc4)c3)CC[C@]3(C)C(CCC4[C@@]5(C)CC[C@H](O)C(C)(C)C5CC[C@]43C)C12 (some centres unmarked) [Example 160] | 39 | 15 | – | –
C=C(C)[C@@H]1CC[C@]2(C(=O)NCCc3cccc(C(=O)NCC4(CC(=O)O)CCCCC4)c3)CC[C@]3(C)C(CCC4[C@@]5(C)CC[C@H](O)C(C)(C)C5CC[C@]43C)C12 (some centres unmarked) [Example 212] | 96.5 | 85 | – | –
C=C(C)[C@@H]1CC[C@]2(C(=O)NCc3cccc(C(=O)NCc4ccc(OCCCN5CCOCC5)c(C(=O)O)c4)c3)CC[C@]3(C)C(CCC4[C@@]5(C)CC[C@H](O)C(C)(C)C5CC[C@]43C)C12 (some centres unmarked) [Example 124] | 8 | 27.9 | < 100 | < 100
C=C(C)[C@@H]1CC[C@]2(C(=O)NCc3cccc(C(=O)NCc4ccc(F)c(C(=O)OC)c4)c3)CC[C@]3(C)C(CCC4[C@@]5(C)CC[C@H](O)C(C)(C)C5CC[C@]43C)C12 (some centres unmarked) [Example 25] | 100 | 40.4 | < 100 | < 100
C=C(C)[C@@H]1CC[C@]2(C(=O)NCc3cccc(C(=O)NCc4ccc(C(=O)O)cc4)c3)CC[C@]3(C)C(CCC4[C@@]5(C)CC[C@H](O)C(C)(C)C5CC[C@]43C)C12 (some centres unmarked) [Example 7] | 7.2 | 21.4 | < 100 | < 100
C=C(C)[C@@H]1CC[C@]2(C(=O)NCCc3cccc(C(=O)NCC(=O)OCC)c3)CC[C@]3(C)C(CCC4[C@@]5(C)CC[C@H](O)C(C)(C)C5CC[C@]43C)C12 (some centres unmarked) [Example 62] | 230 | 40.4 | < 100 | –
C=C(C)[C@@H]1CC[C@]2(C(=O)NCCc3cccc(C(=O)N[C@@H](C)c4cccc[n+]4[O-])c3)CC[C@]3(C)C(CCC4[C@@]5(C)CC[C@H](O)C(C)(C)C5CC[C@]43C)C12 (some centres unmarked) [Example 275] | 1000 | 180 | – | –
C=C(C)[C@@H]1CC[C@]2(C(=O)NCCc3cccc(C(=O)NCc4ccc(C(=O)O)s4)c3)CC[C@]3(C)C(CCC4[C@@]5(C)CC[C@H](O)C(C)(C)C5CC[C@]43C)C12 (some centres unmarked) [Example 70] | 1.6 | 19.7 | < 100 | < 100
C=C(C)[C@@H]1CC[C@]2(C(=O)NCCc3cccc(-c4nnc(Cc5ccc(C#N)cc5)o4)c3)CC[C@]3(C)C(CCC4[C@@]5(C)CC[C@H](O)C(C)(C)C5CC[C@]43C)C12 (some centres unmarked) [Example 216] | 2700 | 66.5 | – | –
